According to US20240083857A1, “2-Methyl-Quinazolines” (Bayer Pharma Aktiengesellschaft, priority 2017, published 2024):

Assays:
[1] = molecular target: Epidermal Growth Factor Receptor (EGFR) (Homo sapiens (Human), UniProt P00533); assay: EGFR kinase assay (TR-FRET); type: biochemical; conditions: values given in μM; read-out: EGFR kinase inhibition IC50
In short: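 EGFR purified from A431 cells was preincubated with compound 15 min at 22° C in pH 7.0 Hepes buffer with MgCl2, MnCl2 and vanadate before reaction with a biotinylated peptide. After EDTA stop, phosphopeptide was detected by TR-FRET (anti-phosphotyrosine Tb-cryptate, streptavidin-XL665) as the 665/620 nm emission ratio.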

[2] = molecular target: human SOS1 (nucleotide exchange of K-Ras^G12C) (Homo sapiens, UniProt Q07889); assay: Biochemical assay 2: K-Ras^G12C activation assay by hSOS1 at high GTP concentration (HTRF); conditions: high GTP; read-out: Assay 2 (KRAS-Activation by SOS high GTP) activity expressed as IC50

Epidermal Growth Factor Receptor (EGFR), sequence (P00533 25-1210): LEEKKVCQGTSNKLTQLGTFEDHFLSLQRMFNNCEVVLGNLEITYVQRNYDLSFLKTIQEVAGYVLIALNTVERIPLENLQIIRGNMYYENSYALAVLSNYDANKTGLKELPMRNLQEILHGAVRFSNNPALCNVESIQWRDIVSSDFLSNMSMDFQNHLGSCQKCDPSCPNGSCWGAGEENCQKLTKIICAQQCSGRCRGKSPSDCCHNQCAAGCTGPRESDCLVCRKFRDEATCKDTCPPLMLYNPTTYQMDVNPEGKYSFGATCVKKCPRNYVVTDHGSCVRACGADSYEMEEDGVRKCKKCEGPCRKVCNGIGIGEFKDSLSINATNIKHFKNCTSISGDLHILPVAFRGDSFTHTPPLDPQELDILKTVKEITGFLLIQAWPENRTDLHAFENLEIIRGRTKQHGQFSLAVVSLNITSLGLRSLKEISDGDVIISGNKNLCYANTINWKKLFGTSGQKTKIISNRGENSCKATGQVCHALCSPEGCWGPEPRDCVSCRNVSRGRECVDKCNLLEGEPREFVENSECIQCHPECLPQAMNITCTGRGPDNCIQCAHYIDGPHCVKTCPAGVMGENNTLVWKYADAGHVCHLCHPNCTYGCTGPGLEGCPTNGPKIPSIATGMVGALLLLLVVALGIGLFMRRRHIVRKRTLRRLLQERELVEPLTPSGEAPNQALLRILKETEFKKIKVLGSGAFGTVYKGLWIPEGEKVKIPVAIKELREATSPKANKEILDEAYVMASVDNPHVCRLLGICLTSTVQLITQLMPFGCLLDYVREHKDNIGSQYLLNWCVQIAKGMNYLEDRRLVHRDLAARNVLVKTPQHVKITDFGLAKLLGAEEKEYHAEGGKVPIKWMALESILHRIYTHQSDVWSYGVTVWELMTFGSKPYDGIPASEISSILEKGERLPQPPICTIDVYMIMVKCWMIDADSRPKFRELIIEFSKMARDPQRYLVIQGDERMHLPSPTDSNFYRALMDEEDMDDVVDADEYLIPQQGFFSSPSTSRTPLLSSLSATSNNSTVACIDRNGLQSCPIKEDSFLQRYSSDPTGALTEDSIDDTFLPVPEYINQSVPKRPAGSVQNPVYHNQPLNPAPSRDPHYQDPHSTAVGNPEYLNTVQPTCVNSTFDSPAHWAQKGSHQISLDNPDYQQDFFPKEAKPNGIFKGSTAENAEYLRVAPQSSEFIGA

| SMILES | IC50 [1] [µM] | IC50 [2] [µM] |
| --- | --- | --- |
| COc1cc2nc(C)nc(NC(C)c3ccc(-c4ccccc4CN4CCC(N(C)C)C4)s3)c2cc1OC (stereo not shown) [Example 238, N-{1-[5-(2-{[3-(dimethylamino)pyrrolidin-1-yl]methyl}phenyl)thiophen-2-yl]ethyl}-6,7-dimethoxy-2-methylquinazolin-4-amine] | > 20 | 0.217 |
| COc1cc2nc(C)nc(NC(C)c3csc(Br)c3)c2cc1OC (stereo not shown) [Example 239, N-[1-(5-bromothiophen-3-yl)ethyl]-6,7-dimethoxy-2-methylquinazolin-4-amine] | > 20 | 3.83 |
| COc1cc2nc(C)nc(NC(C)c3ccc(-c4ccccc4C(N)=O)s3)c2cc1OC (stereo not shown) [Example 240, 2-(5-{1-[(6,7-dimethoxy-2-methylquinazolin-4-yl)amino]ethyl}thiophen-2-yl)benzamide] | > 20 | 3.19 |
| COc1cc2nc(C)nc(NC(C)c3ccc(-c4cccc(C(N)=O)c4)s3)c2cc1OC (stereo not shown) [Example 241, 3-(5-{1-[(6,7-dimethoxy-2-methylquinazolin-4-yl)amino]ethyl}thiophen-2-yl)benzamide] | > 20 | 1.44 |
| COc1cc2nc(C)nc(NC(C)c3ccc(-c4ccc(C(N)=O)cc4)s3)c2cc1OC (stereo not shown) [Example 242, 4-(5-{1-[(6,7-dimethoxy-2-methylquinazolin-4-yl)amino]ethyl}thiophen-2-yl)benzamide] | > 20 | 1.5 |
| COc1cc2nc(C)nc(NC(C)c3ccc(-c4ccccc4N)s3)c2cc1OC (stereo not shown) [Example 243, N-{1-[5-(2-aminophenyl)thiophen-2-yl]ethyl}-6,7-dimethoxy-2-methylquinazolin-4-amine] | > 20 | 0.325 |
| COc1cc2nc(C)nc(NC(C)c3ccc(-c4ccccc4CO)s3)c2cc1OC (stereo not shown) [Example 244, [2-(5-{1-[(6,7-dimethoxy-2-methylquinazolin-4-yl)amino]ethyl}thiophen-2-yl)phenyl]methanol] | > 20 | 0.401 |
| COc1cc2nc(C)nc(NC(C)c3ccc(-c4ccccc4C#N)s3)c2cc1OC (stereo not shown) [Example 245, 2-(5-{1-[(6,7-dimethoxy-2-methylquinazolin-4-yl)amino]ethyl}thiophen-2-yl)benzonitrile] | > 20 | 0.9 |
| COc1cc2nc(C)nc(NC(C)c3ccc(-c4cccc5cn[nH]c45)s3)c2cc1OC (stereo not shown) [Example 246, N-{1-[5-(1H-indazol-7-yl)thiophen-2-yl]ethyl}-6,7-dimethoxy-2-methylquinazolin-4-amine] | > 20 | 4.21 |
| COc1cc2nc(C)nc(NC(C)c3ccc(-c4cccc5[nH]ncc45)s3)c2cc1OC (stereo not shown) [Example 247, N-{1-[5-(1H-indazol-4-yl)thiophen-2-yl]ethyl}-6,7-dimethoxy-2-methylquinazolin-4-amine] | > 20 | 0.867 |
| C=Cc1ccccc1-c1ccc(C(C)Nc2nc(C)nc3cc(OC)c(OC)cc23)s1 (stereo not shown) [Example 248, N-{1-[5-(2-ethenylphenyl)thiophen-2-yl]ethyl}-6,7-dimethoxy-2-methylquinazolin-4-amine] | > 20 | 8.08 |
| COc1cc2nc(C)nc(NC(C)c3ccc(-c4cnn(CC(N)=O)c4)s3)c2cc1OC (stereo not shown) [Example 249, 2-[4-(5-{1-[(6,7-dimethoxy-2-methylquinazolin-4-yl)amino]ethyl}thiophen-2-yl)-1H-pyrazol-1-yl]acetamide] | > 20 | 5.31 |
| CNCc1ccccc1-c1ccc(C(C)Nc2nc(C)nc3cc(OC)c(OC)cc23)s1 (stereo not shown) [Example 250, 6,7-dimethoxy-2-methyl-N-[1-(5-{2-[(methylamino)methyl]phenyl}thiophen-2-yl)ethyl]quinazolin-4-amine] | > 20 | 0.0581 |
| COc1cc2nc(C)nc(NC(C)c3csc(-c4cnn(CCO)c4)c3)c2cc1OC (stereo not shown) [Example 251, 2-[4-(4-{1-[(6,7-dimethoxy-2-methylquinazolin-4-yl)amino]ethyl}thiophen-2-yl)-1H-pyrazol-1-yl]ethanol] | > 20 | 5.84 |
| COc1cc2nc(C)nc(NC(C)c3ccc(-c4ccccc4CN)s3)c2cc1OC (stereo not shown) [Example 252, N-[1-{5-[2-(aminomethyl)phenyl]thiophen-2-yl}ethyl]-6,7-dimethoxy-2-methylquinazolin-4-amine] | > 20 | 0.0741 |
| COc1cc2nc(C)nc(NC(C)c3csc(-c4cnc5n4CCC5)c3)c2cc1OC (stereo not shown) [Example 253, N-{1-[5-(6,7-dihydro-5H-pyrrolo[1,2-a]imidazol-3-yl)thiophen-3-yl]ethyl}-6,7-dimethoxy-2-methylquinazolin-4-amine] | > 20 | 2.33 |
| COc1cc2nc(C)nc(NC(C)c3csc(-c4cnn(CCN5CCCC5)c4)c3)c2cc1OC (stereo not shown) [Example 254, 6,7-dimethoxy-2-methyl-N-[1-(5-{1-[2-(pyrrolidin-1-yl)ethyl]-1H-pyrazol-4-yl}thiophen-3-yl)ethyl]quinazolin-4-amine] | > 20 | 1.59 |
| COc1cc2nc(C)nc(NC(C)c3csc(-c4ccc(F)cc4CN)c3)c2cc1OC (stereo not shown) [Example 255, N-[1-{5-[2-(aminomethyl)-4-fluorophenyl]thiophen-3-yl}ethyl]-6,7-dimethoxy-2-methylquinazolin-4-amine] | > 20 | 0.317 |
| COc1cc2nc(C)nc(N[C@H](C)c3cccc(-c4cnn(CCO)c4)c3)c2cc1OC [Example 256, 2-[4-(3-{(1R)-1-[(6,7-dimethoxy-2-methylquinazolin-4-yl)amino]ethyl}phenyl)-1H-pyrazol-1-yl]ethanol] | > 20 | 0.828 |
| COc1cc2nc(C)nc(N[C@H](C)c3cccc(-c4cnn(CCN5CCCC5)c4)c3)c2cc1OC [Example 257, 6,7-dimethoxy-2-methyl-N-[(1R)-1-(3-{1-[2-(pyrrolidin-1-yl)ethyl]-1H-pyrazol-4-yl}phenyl)ethyl]quinazolin-4-amine] | > 20 | 0.754 |
